Laboratory results taken from the supplement of paper PMC10307832.

Assays:
Test in all cases: relative viability (nuclei count vs DMSO), 5 days (fraction); higher = more cells survive
[1] = compound: Cn1cc(-c2cnn3c(N)c(Br)c([C@@H]4CCCNC4)nc23)cn1 + O=C(c1cc(Cc2n[nH]c(=O)c3ccccc23)ccc1F)N1CCN(C(=O)C2CC2)CC1 [Olaparib] (partner 8 µM)
How it was run: (§1)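 Lung cancer cell lines in 1536-well plates got either a single drug or a fixed anchor-drug dose together with five library-drug doses (not always all listed) in √10 steps, by pin tool, on the day after seeding. Nuclei were counted after 5 days, and relative viability is the treated-to-vehicle ratio of nuclei counts. Values are medians of duplicate plates.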

[2] = compound: Cn1cc(-c2cnn3c(N)c(Br)c([C@@H]4CCCNC4)nc23)cn1 + CC(C)C[C@H](NC(=O)[C@H](Cc1ccccc1)NC(=O)c1cnccn1)B(O)O [Bortezomib] (partner 0.002 µM)
How it was run: as §1

[3] = compound: Cn1cc(-c2cnn3c(N)c(Br)c([C@@H]4CCCNC4)nc23)cn1 + Nc1nc2[nH]cc(CCc3ccc(C(=O)N[C@@H](CCC(=O)O)C(=O)O)cc3)c2c(=O)[nH]1 [Pemetrexed] (partner 0.2 µM)
How it was run: as §1

[4] = compound: Cn1cc(-c2cnn3c(N)c(Br)c([C@@H]4CCCNC4)nc23)cn1 + Cc1nc(NC(=O)N2CCC[C@H]2C(N)=O)sc1-c1ccnc(C(C)(C)C(F)(F)F)c1 [Alpelisib] (partner 2 µM)
How it was run: as §1

Row | Cell Line | relative viability ([1]; first compound 0.05 µM) | relative viability ([1]; first compound 0.1581 µM) | relative viability ([1]; first compound 0.5 µM) | relative viability ([1]; first compound 1.581 µM) | relative viability ([1]; first compound 5 µM) | relative viability ([2]; first compound 0.05 µM) | relative viability ([2]; first compound 0.1581 µM) | relative viability ([2]; first compound 0.5 µM) | relative viability ([2]; first compound 1.581 µM) | relative viability ([2]; first compound 5 µM) | relative viability ([3]; first compound 0.05 µM) | relative viability ([3]; first compound 0.1581 µM) | relative viability ([3]; first compound 0.5 µM) | relative viability ([3]; first compound 1.581 µM) | relative viability ([3]; first compound 5 µM) | relative viability ([4]; first compound 0.05 µM) | relative viability ([4]; first compound 0.1581 µM) | relative viability ([4]; first compound 0.5 µM) | relative viability ([4]; first compound 1.581 µM) | relative viability ([4]; first compound 5 µM)
1 | HCC-44 | 1.01 | 0.975 | 1 | 0.91 | 1.01 | 0.91 | 1.11 | 0.923 | 0.882 | 0.796 | 0.608 | 0.586 | 0.674 | 0.321 | 0.369 | 0.876 | 0.899 | 0.759 | 0.747 | 0.786
2 | HCC-78 | 0.826 | 0.874 | 0.947 | 0.878 | 0.465 | 0.482 | 0.567 | 0.556 | 0.511 | 0.39 | 0.912 | 0.842 | 0.869 | 0.869 | 0.743 | 0.365 | 0.334 | 0.372 | 0.354 | 0.289
3 | HCC-366 | 0.392 | 0.372 | 0.296 | 0.229 | 0.137 | 1.03 | 1.2 | 1.06 | 0.734 | 0.334 | 0.166 | 0.108 | 0.128 | 0.0814 | 0.0667 | 0.439 | 0.539 | 0.493 | 0.368 | 0.156
4 | HCC-827 | 0.707 | 0.622 | 0.766 | 0.628 | 0.339 | 0.919 | 1.03 | 1.18 | 1.1 | 1.01 | 0.269 | 0.202 | 0.249 | 0.228 | 0.187 | 0.992 | 1.04 | 1.03 | 1.06 | 1.06
5 | HOP-62 | 0.321 | 0.262 | 0.208 | 0.241 | 0.199 | 0.847 | 1.02 | 1.28 | 0.708 | 0.294 | 0.309 | 0.252 | 0.307 | 0.22 | 0.203 | 1.1 | 0.815 | 0.997 | 0.649 | 1.19
6 | IA-LM | 0.964 | 0.932 | 0.902 | 0.643 | 0.358 | 0.823 | 0.886 | 0.678 | 0.532 | 0.32 |  |  |  |  |  | 0.757 | 1.05 | 0.574 | 0.591 | 0.589
7 | LK-2 | 0.664 | 0.648 | 0.771 | 0.568 | 0.373 |  |  |  |  |  | 0.271 | 0.309 | 0.271 | 0.278 | 0.124 | 1.07 | 0.945 | 1.11 | 0.618 | 0.595
8 | NCI-H358 | 0.675 | 0.643 | 0.598 | 0.372 | 0.414 |  |  |  |  |  | 0.177 | 0.164 | 0.162 | 0.166 | 0.129 | 0.957 | 0.766 | 0.852 | 0.518 | 0.78
9 | NCI-H522 | 0.674 | 0.749 | 0.68 | 0.523 | 0.633 |  |  |  |  |  | 0.938 | 0.913 | 1.02 | 1.01 | 0.865 |  |  |  |  | 
10 | NCI-H727 | 0.754 | 0.873 | 0.68 | 0.646 | 0.559 | 0.818 | 0.887 | 0.901 | 0.623 | 0.412 |  |  |  |  |  | 0.575 | 0.535 | 0.534 | 0.412 | 0.361
11 | NCI-H1299 | 0.981 | 0.968 | 1 | 0.738 | 0.472 | 0.942 | 1.04 | 0.994 | 1.03 | 0.985 |  |  |  |  |  | 1.03 | 1.13 | 1.09 | 1.05 | 0.954
12 | NCI-H1395 | 0.432 | 0.445 | 0.395 | 0.376 | 0.372 |  |  |  |  |  | 0.695 | 0.445 | 0.535 | 0.578 | 0.446 | 1.18 | 0.685 | 0.874 | 0.66 | 0.435
13 | NCI-H1563 |  |  |  |  |  | 0.887 | 0.74 | 0.742 | 0.805 | 0.706 | 0.754 | 0.647 | 0.782 | 0.753 | 0.532 | 0.827 | 0.835 | 0.935 | 0.8 | 0.762
14 | NCI-H1648 | 0.64 | 0.829 | 1.1 | 1.08 | 0.583 |  |  |  |  |  | 0.686 | 0.673 | 0.68 | 0.715 | 0.668 |  |  |  |  | 
15 | NCI-H1650 | 0.625 | 0.82 | 0.851 | 0.616 | 0.444 | 0.185 | 0.171 | 0.215 | 0.189 | 0.196 | 0.368 | 0.288 | 0.292 | 0.239 | 0.224 |  |  |  |  | 
16 | NCI-H1703 | 0.416 | 0.364 | 0.364 | 0.233 | 0.123 | 0.231 | 0.261 | 0.19 | 0.132 | 0.138 |  |  |  |  |  | 0.374 | 0.318 | 0.259 | 0.161 | 0.139
17 | NCI-H1793 | 1.02 | 1.08 | 0.921 | 0.718 | 0.472 |  |  |  |  |  | 1.02 | 0.838 | 0.79 | 0.766 | 0.49 | 0.773 | 0.878 | 0.709 | 0.666 | 0.58
18 | NCI-H1944 | 0.408 | 0.448 | 0.374 | 0.378 | 0.349 |  |  |  |  |  | 0.688 | 0.511 | 0.541 | 0.337 | 0.152 | 0.808 | 0.797 | 0.825 | 0.717 | 0.626
19 | NCI-H2170 | 0.605 | 0.588 | 0.649 | 0.523 | 0.555 |  |  |  |  |  | 0.268 | 0.258 | 0.26 | 0.256 | 0.223 | 0.865 | 0.764 | 0.654 | 0.705 | 0.88
20 | NCI-H2342 | 0.467 | 0.585 | 0.448 | 0.463 | 0.438 |  |  |  |  |  | 0.867 | 0.846 | 0.762 | 0.788 | 0.778 |  |  |  |  | 
21 | SK-MES-1 | 0.879 | 0.596 | 0.441 | 0.34 | 0.2 |  |  |  |  |  | 1.05 | 0.755 | 0.651 | 0.351 | 0.258 | 1.01 | 1.03 | 0.94 | 0.763 | 0.592
